Consider 26 compounds from patent publication US10772893B2, “2-(morpholin-4-yl)-1,7-naphthyridines” (BAYER PHARMA AKTIENGESELLSCHAFT, priority 2014, dated 2020).

For the assay, the system named is HeLa cells. Kind of assay: Proliferation assay, crystal violet staining. The note with it: Homo sapiens, 96 h, read-out: Inhibition of HeLa cell proliferation, HeLa cells, 4 days incubation.

Take `C[C@@H]1COCCN1c1cc(-c2ccn(CCF)n2)c2ccnc(-c3ccn[nH]3)c2n1` [Example 158, 4-[1-(2-fluoroethyl)-1H-pyrazol-3-yl]-2-[(3R)-3-methylmorpholin-4-yl]-8-(1H-pyrazol-5-yl)-1,7-naphthyridine]: the IC50 was 328 nM.

For `C[C@@H]1COCCN1c1cc(-c2ccnn2CCF)c2ccnc(-c3ccn[nH]3)c2n1` [Example 159, 4-[1-(2-fluoroethyl)-1H-pyrazol-5-yl]-2-[(3R)-3-methylmorpholin-4-yl]-8-(1H-pyrazol-5-yl)-1,7-naphthyridine], the IC50 turned out to be 61.6 nM.

On to `C[C@@H]1COCCN1c1cc(-c2ccn(CCO)n2)c2ccnc(-c3ccn[nH]3)c2n1` [Example 160, 2-(3-{2-[(3R)-3-methylmorpholin-4-yl]-8-(1H-pyrazol-5-yl)-1,7-naphthyridin-4-yl}-1H-pyrazol-1-yl)ethanol], for which the IC50 was determined as 451 nM.

As to `C[C@@H]1COCCN1c1cc(-c2ccn(CC(C)(C)O)n2)c2ccnc(-c3ccn[nH]3)c2n1` [Example 161, 2-methyl-1-(3-{2-[(3R)-3-methylmorpholin-4-yl]-8-(1H-pyrazol-5-yl)-1,7-naphthyridin-4-yl}-1H-pyrazol-1-yl)propan-2-ol], the IC50 came out at 588 nM.

Regarding `C[C@@H]1CN(c2cc(N3CCOCC3)nc3c(-c4ccn[nH]4)nccc23)CCO1` [Example 162, 4-[(2R)-2-methylmorpholin-4-yl]-2-(morpholin-4-yl)-8-(1H-pyrazol-5-yl)-1,7-naphthyridine], the IC50 was found to be 1220 nM.

For the compound `C[C@H]1CN(c2cc(N3CCOCC3)nc3c(-c4ccn[nH]4)nccc23)CCO1` [Example 170, 4-[(2S)-2-methylmorpholin-4-yl]-2-(morpholin-4-yl)-8-(1H-pyrazol-5-yl)-1,7-naphthyridine], the IC50 stood at 2410 nM.

With `C[C@@H]1COCCN1c1cc(OC(F)F)c2ccnc(-c3ccn[nH]3)c2n1` [Example 172, 4-(difluoromethoxy)-2-[(3R)-3-methylmorpholin-4-yl]-8-(1H-pyrazol-5-yl)-1,7-naphthyridine], the IC50 is 2100 nM.

Turning to `CC(C)(O)c1cc(N2CCOCC2)nc2c(-c3ccn[nH]3)nccc12` [Example 173, 2-[2-(morpholin-4-yl)-8-(1H-pyrazol-5-yl)-1,7-naphthyridin-4-yl]propan-2-ol], the IC50 was greater than 3000 nM.

For `O=C1CN(c2cc(N3CCOCC3)nc3c(-c4ccn[nH]4)nccc23)CCN1` [Example 176, 4-[2-(morpholin-4-yl)-8-(1H-pyrazol-5-yl)-1,7-naphthyridin-4-yl]piperazin-2-one], the IC50 is 2520 nM.

As to `CP(C)(=O)c1cc(N2CCOCC2)nc2c(-c3ccn[nH]3)nccc12` [Example 177, 4-(dimethylphosphoryl)-2-(morpholin-4-yl)-8-(1H-pyrazol-5-yl)-1,7-naphthyridine], the IC50 was greater than 3000 nM.

Consider `C[C@@H]1CN(c2cc(N3CCOCC3)nc3c(-c4ccn[nH]4)nccc23)C[C@H](C)N1` [Example 179, 4-[(cis)-3,5-dimethylpiperazin-1-yl]-2-(morpholin-4-yl)-8-(1H-pyrazol-5-yl)-1,7-naphthyridine], for which the IC50 was greater than 3000 nM.

On to `c1cc(-c2nccc3c(N4C[C@@H]5C[C@H]4CO5)cc(N4CCOCC4)nc23)[nH]n1` [Example 185, 2-(morpholin-4-yl)-4-[(1S,4S)-2-oxa-5-azabicyclo[2.2.1]hept-5-yl]-8-(1H-pyrazol-5-yl)-1,7-naphthyridine], for which the IC50 was greater than 3000 nM.

Consider `CSCc1cc(N2CCOC[C@H]2C)nc2c(-c3ccn[nH]3)nccc12` [Example 186, 2-[(3R)-3-methylmorpholin-4-yl]-4-[(methylsulfanyl)methyl]-8-(1H-pyrazol-5-yl)-1,7-naphthyridine], for which the IC50 came out at 789 nM.

Turning to `C[C@@H]1COCCN1c1cc(C2(O)CCCCC2)c2ccnc(-c3ccn[nH]3)c2n1` [Example 189, 1-{2-[(3R)-3-methylmorpholin-4-yl]-8-(1H-pyrazol-5-yl)-1,7-naphthyridin-4-yl}cyclohexanol], the IC50 stood at 1010 nM.

Consider `CS(=O)(=NC#N)c1ccc(-c2cc(N3CCOCC3)nc3c(-c4ccn[nH]4)nccc23)cc1` (centres unmarked) [Example 191, (methyl{4-[2-(morpholin-4-yl)-8-(1H-pyrazol-5-yl)-1,7-naphthyridin-4-yl]phenyl}oxido-λ^6-sulfanylidene)cyanamide], for which the IC50 was 2120 nM.

On to `C[C@@H]1COCCN1c1cc(-c2[nH]nnc2C2CC2)c2ccnc(-c3ccn[nH]3)c2n1` [Example 194, 4-(4-cyclopropyl-1H-1,2,3-triazol-5-yl)-2-[(3R)-3-methylmorpholin-4-yl]-8-(1H-pyrazol-5-yl)-1,7-naphthyridine], for which the IC50 worked out at 892 nM.

For the compound `CC[S+]([O-])c1cc(N2CCOCC2)nc2c(-c3ccn[nH]3)nccc12` (centres unmarked) [Example 195, 4-ethylsulfinyl-2-(morpholin-4-yl)-8-(1H-pyrazol-5-yl)-1,7-naphthyridine], the IC50 stood at 3010 nM.

On to `O=S(=O)(c1ccccc1)c1cc(N2CCOCC2)nc2c(-c3ccn[nH]3)nccc12` [Example 198, 2-(morpholin-4-yl)-4-(phenylsulfonyl)-8-(1H-pyrazol-5-yl)-1,7-naphthyridine], for which the IC50 is greater than 3000 nM.

As to `CCS(=O)(=O)c1cc(N2CCOCC2)nc2c(-c3ccn[nH]3)nccc12` [Example 200, 4-(ethylsulfonyl)-2-(morpholin-4-yl)-8-(1H-pyrazol-5-yl)-1,7-naphthyridine], the IC50 was 1960 nM.

On to `[O-][S+](c1ccccc1)c1cc(N2CCOCC2)nc2c(-c3ccn[nH]3)nccc12` (centres unmarked) [Example 201, 2-(morpholin-4-yl)-4-(phenylsulfinyl)-8-(1H-pyrazol-5-yl)-1,7-naphthyridine], for which the IC50 is greater than 3000 nM.

With `C[S+]([O-])c1cc(N2CCOCC2)nc2c(-c3ccn[nH]3)nccc12` (centres unmarked) [Example 202, 4-(methylsulfinyl)-2-(morpholin-4-yl)-8-(1H-pyrazol-5-yl)-1,7-naphthyridine], the IC50 was 1530 nM.

For `C[C@@H]1COCCN1c1cc(C2CC[S+]([O-])CC2)c2ccnc(-c3ccn[nH]3)c2n1` (stereo partly drawn) [Example 203, 2-[(3R)-3-methylmorpholin-4-yl]-4-[1-oxidotetrahydro-2H-thiopyran-4-yl]-8-(1H-pyrazol-5-yl)-1,7-naphthyridine], the IC50 came to 998 nM.

Take `C[C@@H]1COCCN1c1cc(C2CCS(=O)(=O)CC2)c2ccnc(-c3ccn[nH]3)c2n1` [Example 204, 4-(1,1-dioxidotetrahydro-2H-thiopyran-4-yl)-2-[(3R)-3-methylmorpholin-4-yl]-8-(1H-pyrazol-5-yl)-1,7-naphthyridine]: the IC50 is 568 nM.

For the compound `COc1ccc(Sc2cc(N3CCOCC3)nc3c(-c4ccn[nH]4)nccc23)cc1` [Example 213, 4-[(4-methoxyphenyl)sulfanyl]-2-(morpholin-4-yl)-8-(1H-pyrazol-5-yl)-1,7-naphthyridine], the IC50 is greater than 3000 nM.

Turning to `Cc1cc(-c2cc(N3CCOCC3)nc3c(-c4ccn[nH]4)nccc23)n[nH]1` [Example 214, 4-(5-methyl-1H-pyrazol-3-yl)-2-(morpholin-4-yl)-8-(1H-pyrazol-5-yl)-1,7-naphthyridine], the IC50 was greater than 3000 nM.

As to `O=C1CCCN1c1cc(N2CCOCC2)nc2c(-c3ccn[nH]3)nccc12` [Example 215, 1-[2-(morpholin-4-yl)-8-(1H-pyrazol-5-yl)-1,7-naphthyridin-4-yl]pyrrolidin-2-one], the IC50 was greater than 3000 nM.
